Data as given in patent publication US8304206B2, “Mass spectrometry assays for identifying compounds that activate deacetylases” (Sirtris Pharmaceuticals, Inc., priority 2005, dated 2012).

Target: T1, SIRT1 (Homo sapiens, UniProt Q96EB6)
T1 sequence (Q96EB6 1-747): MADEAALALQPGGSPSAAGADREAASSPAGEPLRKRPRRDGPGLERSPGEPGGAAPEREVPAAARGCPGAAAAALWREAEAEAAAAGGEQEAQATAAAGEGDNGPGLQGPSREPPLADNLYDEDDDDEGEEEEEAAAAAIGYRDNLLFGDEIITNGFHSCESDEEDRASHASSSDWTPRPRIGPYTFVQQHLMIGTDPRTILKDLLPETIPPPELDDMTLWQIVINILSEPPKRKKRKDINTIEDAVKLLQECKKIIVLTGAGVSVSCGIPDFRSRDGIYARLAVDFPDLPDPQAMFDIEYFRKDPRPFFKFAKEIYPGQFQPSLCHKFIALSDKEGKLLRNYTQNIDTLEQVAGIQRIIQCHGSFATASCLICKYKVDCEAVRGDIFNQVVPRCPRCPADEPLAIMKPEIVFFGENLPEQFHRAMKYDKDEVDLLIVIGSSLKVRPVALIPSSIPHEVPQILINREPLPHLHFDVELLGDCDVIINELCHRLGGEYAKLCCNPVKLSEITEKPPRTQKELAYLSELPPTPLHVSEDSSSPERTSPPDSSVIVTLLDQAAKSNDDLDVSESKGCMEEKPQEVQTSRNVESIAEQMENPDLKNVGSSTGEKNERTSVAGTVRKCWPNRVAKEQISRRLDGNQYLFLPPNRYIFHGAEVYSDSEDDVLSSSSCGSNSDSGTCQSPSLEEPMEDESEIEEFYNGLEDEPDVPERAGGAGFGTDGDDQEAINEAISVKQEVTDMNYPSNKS
Test: SIRT1 mass spectrometry assay (screening for activation)
Assay type: biochemical
Details: for FOLD ACTIVATION MS: activation of SIRT1, mass spectrometry; for EC50: activation of SIRT1, 0.5 μM peptide substrate (SEQ ID NO: 34), 120 μM NAD+, 10 nM SIRT1, 25 min, read-out: ED50 MS ASSAY

Row | Structure (SMILES) | FOLD ACTIVATION MS | EC50 [µM]
1 | COc1ccc(C(=O)Nc2cccc(-c3nc4ncccc4o3)n2)c(OC)c1 [compound 69] | B (Fold Activation<250%) | –
2 | CN(C)c1ccc(C(=O)Nc2cccc(-c3nc4ncccc4o3)n2)cc1 [compound 70] | B (Fold Activation<250%) | –
3 | O=C(Nc1ccc2c(c1)OCO2)Nc1cccc(-c2nc3ncccc3o2)n1 [compound 71] | B (Fold Activation<250%) | –
4 | COc1cc(C(=O)Nc2cc(-c3nc4ncccc4o3)ccn2)cc(OC)c1OC [compound 75] | B (Fold Activation<250%) | –
5 | CN(C)c1cccc(C(=O)Nc2cc(-c3nc4ncccc4o3)ccn2)c1 [compound 76] | B (Fold Activation<250%) | –
6 | COc1ccc(C(=O)Nc2cc(-c3nc4ccccc4o3)ccn2)cc1OC [compound 77] | B (Fold Activation<250%) | –
7 | COc1ccc(C(=O)Nc2cccc(-c3csc(C)n3)c2)cc1OC [compound 80] | B (Fold Activation<250%) | –
8 | COc1ccc(C(=O)Nc2cccc(-c3csc(C)n3)c2)c(OC)c1 [compound 81] | B (Fold Activation<250%) | –
9 | COc1cc(SC)ccc1C(=O)Nc1cccc(-c2nncn2C)c1 [compound 83] | B (Fold Activation<250%) | –
10 | COc1ccc(C(=O)Nc2cccc(-c3csc(-c4ccccc4)n3)c2)cc1OC [compound 84] | B (Fold Activation<250%) | –
11 | Cc1nc(-c2cccc(Nc3nc4ccccc4o3)c2)cs1 [compound 92] | B (Fold Activation<250%) | –
12 | c1cc(Nc2nc3ccccc3o2)cc(-c2nc3ncccc3o2)c1 [compound 93] | B (Fold Activation<250%) | –
13 | c1cc(Nc2nc3ccccc3s2)cc(-c2nc3ncccc3o2)c1 [compound 95] | B (Fold Activation<250%) | < 50
14 | COc1ccc(C(=O)Nc2ccccc2-c2nc3ncccc3o2)cc1OC [compound 96] | B (Fold Activation<250%) | < 50
15 | CN(C)c1cccc(C(=O)Nc2ccccc2-c2nc3ncccc3o2)c1 [compound 97] | B (Fold Activation<250%) | < 50
16 | O=C(Nc1cccc(-c2nc3ccncc3s2)c1)Nc1ccc2c(c1)OCO2 [compound 99] | A (Fold activation>250%) | < 50
17 | COc1ccc(NC(=O)c2cccc(-c3nc4ncccc4o3)c2)c(OC)c1 [compound 100] | B (Fold Activation<250%) | –
18 | COc1ccc(NC(=O)c2cccc(-c3nc4ncccc4o3)c2)cc1OC [compound 101] | A (Fold activation>250%) | –
19 | COc1cc(NC(=O)c2cccc(-c3nc4ncccc4o3)c2)cc(OC)c1OC [compound 102] | A (Fold activation>250%) | –
20 | c1cc(Nc2nc3ccccc3s2)nc(-c2nc3ncccc3o2)c1 [compound 104] | B (Fold Activation<250%) | < 50
21 | c1cc(Nc2nc3ccccc3o2)nc(-c2nc3ncccc3o2)c1 [compound 105] | B (Fold Activation<250%) | < 50
22 | COc1cc(C(=O)Nc2ccccc2-c2nc3ncccc3o2)cc(OC)c1OC [compound 106] | B (Fold Activation<250%) | < 50
23 | COc1cc(OC)cc(C(=O)Nc2ccccc2-c2nc3ccccc3[nH]2)c1 [compound 141] | B (Fold Activation<250%) | < 50
24 | COc1ccc(C(=O)Nc2ccccc2-c2nc3ccccc3[nH]2)cc1OC [compound 142] | A (Fold activation>250%) | < 50
25 | COc1ccc(C(=O)Nc2sccc2-c2nc3ccccc3s2)cc1OC [compound 145] | B (Fold Activation<250%) | < 50

Row | Structure (SMILES) | FOLD ACTIVATION MS | EC50 [µM]
26 | COc1cc(OC)cc(C(=O)Nc2sccc2-c2nc3ccccc3s2)c1 [compound 146] | B (Fold Activation<250%) | < 50
27 | COc1cc(C)ccc1C(=O)Nc1ccc(-c2nc3cccnc3[nH]2)cc1 [compound 149] | B (Fold Activation<250%) | < 50
28 | COc1ccc(C(=O)Nc2ccc(-c3nc4cccnc4[nH]3)cc2)cc1OC [compound 150] | B (Fold Activation<250%) | < 50
29 | COc1ccc(C(=O)Nc2cc(C(=O)NCCN(C)C)cc(-c3nc4ncccc4o3)c2)cc1OC [compound 153] | B (Fold Activation<250%) | –
30 | CN(C)CCNC(=O)c1cc(NC(=O)c2cccc(N(C)C)c2)cc(-c2nc3ncccc3o2)c1 [compound 154] | A (Fold activation>250%) | –
31 | COc1ccc(C(=O)Nc2cc(C(=O)NCCN(C)C)cc(-c3nc4ncccc4o3)c2)c(OC)c1 [compound 155] | B (Fold Activation<250%) | –
32 | COc1ccc(C(=O)Nc2cc(CN(C)C)cc(-c3nc4ncccc4o3)c2)cc1OC [compound 156] | B (Fold Activation<250%) | –
33 | CN(C)Cc1cc(NC(=O)c2cccc(N(C)C)c2)cc(-c2nc3ncccc3o2)c1 [compound 157] | B (Fold Activation<250%) | –
34 | COc1ccc(C(=O)Nc2cc(CN(C)C)cc(-c3nc4ncccc4o3)c2)c(OC)c1 [compound 158] | B (Fold Activation<250%) | –
35 | COc1ccc(C(=O)Nc2cc(CN3CCNCC3)cc(-c3nc4ncccc4o3)c2)cc1OC [compound 159] | B (Fold Activation<250%) | –
36 | CN(C)c1cccc(C(=O)Nc2cc(CN3CCNCC3)cc(-c3nc4ncccc4o3)c2)c1 [compound 160] | A (Fold activation>250%) | –
37 | COc1ccc(C(=O)Nc2cc(CN3CCNCC3)cc(-c3nc4ncccc4o3)c2)c(OC)c1 [compound 161] | A (Fold activation>250%) | –
38 | COc1ccc(C(=O)Nc2ccccc2-c2nc3ccncc3s2)cc1OC [compound 162] | B (Fold Activation<250%) | < 50
39 | COc1cc(C(=O)Nc2ccccc2-c2nc3ccncc3s2)cc(OC)c1OC [compound 163] | B (Fold Activation<250%) | < 50
40 | COc1ccc(C(=O)Nc2cc(C(=O)N3CCNCC3)cc(-c3nc4ncccc4o3)c2)cc1OC [compound 164] | B (Fold Activation<250%) | –
41 | CN(C)Cc1ccc2oc(-c3cccc(NC(=O)c4cccc(N(C)C)c4)c3)nc2n1 [compound 165] | A (Fold activation>250%) | –
42 | CN(C)c1cccc(C(=O)Nc2cccc(-c3nc4nc(CN5CCNCC5)ccc4o3)c2)c1 [compound 166] | B (Fold Activation<250%) | –
43 | Cc1ccc2oc(-c3cccc(NC(=O)c4cccc(N(C)C)c4)c3)nc2n1 [compound 167] | B (Fold Activation<250%) | –
44 | CN(C(=O)Nc1ccccc1-c1nc2ccccc2[nH]1)c1ccccc1 [compound 169] | B (Fold Activation<250%) | < 50
45 | COc1cc(C(=O)Nc2cc(CN(C)C)cc(-c3nc4ccncc4s3)c2)cc(OC)c1OC [compound 174] | A (Fold activation>250%) | –
46 | COc1ccc(C(=O)Nc2ccccc2-n2cccc2)cc1OC [compound 175] | B (Fold Activation<250%) | –
47 | COc1cc(C(=O)Nc2ccccc2-n2cccn2)cc(OC)c1OC [compound 176] | B (Fold Activation<250%) | –
48 | COc1ccc(C(=O)Nc2ccccc2-n2cccn2)cc1OC [compound 177] | B (Fold Activation<250%) | –
49 | COc1ccc(C(=O)Nc2ccccc2-c2cn3cc(CN(C)C)sc3n2)cc1OC [compound 178] | A (Fold activation>250%) | –
